Measurements: paper PMC6920980, “Encapsulation in Polymeric Nanoparticles Enhances the Enzymatic Stability and the Permeability of the GLP-1 Analog, Liraglutide, Across a Culture Model of Intestinal Permeability” (Pharmaceutics, 2019)

Tests used:
[1] = Permeability study on the Caco-2 model; assay type: in vitro ADME, human; conditions: human; Caco-2 on Transwell (polycarbonate, 3 µm pore, 1.12 cm^2), 3 weeks culture, apical to basal, Ringer-buffer pH 7.4, donor 100 µM liraglutide (PN159 3 µM where present), 1 h, HPLC-UV 214 nm, mean, n = 4; read-out: apparent permeability coefficient (Papp) of liraglutide
Procedure: (§1) The Caco-2 intestinal epithelial cell line was purchased from ATCC (cat.no. HTB-37) at passage 60. The cells were grown, as previously reported, in Dulbecco’s modified Eagle’s medium (Gibco, Life Technologies, Carlsbad, CA, USA) supplemented with 10% fetal bovine serum (Pan-Biotech GmbH, Aidenbach, Germany) and 50 μg/mL gentamycin in a humidified incubator with 5% CO2 at 37 °C. All plastic surfaces were coated with 0.05% rat tail collagen in sterile distilled water before cell seeding in culture dishes and the medium was changed every 2 days.
(§2) The concentration of stock solutions for cell culture experiments were 1 mM for both the therapeutic peptide liraglutide and the PN159 peptide, which was used as a reference absorption enhancer. The working solutions were diluted in cell culture medium or Ringer-buffer depending on the experiments. The final concentration of liraglutide encapsulated in the PLGA NPs was 100 µM and was diluted directly before using. Liraglutide was examined at 100 µM, while PN159 was examined at 3 µM concentration both for cell viability and permeability.
(§3) Caco-2 cells were seeded onto Transwell inserts (polycarbonate membrane, 3 µm pore size, 1.12 cm^2 surface area; Corning Life Sciences, Tewksbury, MA, USA) and cultured for three weeks. […] Treatment solutions from both compartments were collected and the Lira level was detected by HPLC.
(§4) The apparent permeability coefficients (Papp) were calculated as described previously. […]
(§5) Recovery (mass balance) was calculated according to the equation: %Recovery=CfDV^D+CfAV^A/C0DV^D×100% where C0D and CfD are the initial and final concentrations of the compound in the donor compartment, respectively; […] is the final concentration in the acceptor compartment; and V^D and V^A are the volumes of the solutions in the donor and acceptor compartments.
(§6) Lira was analyzed by a reversed phase HPLC (Agilent 1200, San Diego, CA, USA) method that was previously developed and validated in our lab. […]

[2] = test system: Caco-2 epithelial cell layers; test: Permeability study on the Caco-2 model; assay type: in vitro ADME, human
Procedure: as §1, §2, §3, §4, §5, §6

pancreatin = test: Enzymatic degradation study in pancreatin-containing simulated intestinal fluid SIF; assay type: in vitro ADME, porcine; conditions: SIF with pancreatin (10 g/L, USP), pH 6.8, 37 °C, 100 rpm, 500 μg Lira in 2 mL, HPLC-UV, triplicate
Procedure: Stability analysis in the presence of pepsin and pancreatin was conducted and compared between native Lira and Lira loaded in PLGA NPs. Five hundred micrograms of native Lira, or the amount of NPs containing an equivalent amount of Lira, were added to 2 mL of pepsin-containing simulated gastric fluid SGF (3.2 g pepsin, 2 g of sodium chloride, 7 mL HCl, mixed and diluted with water to 1 L, pH = 1.2) or pancreatin-containing simulated intestinal fluid SIF (10 g pancreatin, 6.8 g KH2PO4, mixed and adjusted with 0.2 N NaOH then diluted with water to 1 L, pH = 6.8) and incubated at 37 °C under stirring at a speed of 100 rpm. The SGF and SIF were prepared as per USP specifications (Test Solutions, United States Pharmacopeia 35, NF 30, 2012). The same methodology was followed to assess the native Lira stability in SGFsp and SIFsp. […] The samples were centrifuged at 16,500× g and 4 °C for 10 min and the supernatant was analyzed by HPLC to calculate the residual Lira. […] Lira recovery in the withdrawn samples was calculated using the following equation: Lira recovery% = (Remaining Lira amount/theoretical Lira amount) × 100
as §6

[3] = test system: Caco-2 intestinal epithelial cells; test: Cell viability measurement by impedance; assay type: cell-based, human; conditions: PN159 3 µM; for cell impedance kinetics: Caco-2, 24-h long treatment, liraglutide 100 µM; for cell index values measured by impedance (cell viability): Caco-2, liraglutide 100 µM, Triton X-100 1 mg/mL, in culture medium, kinetics for 24 h and 1-h time point, 10 kHz, n = 6–12
Procedure: as §1, §2
Impedance was measured at 10 kHz by an RTCA SP instrument (RTCA-SP instrument, ACEA Biosciences, San Diego, CA, USA). We have successfully tested the cellular effects of peptides and pharmaceutical excipients by impedance kinetics. For background measurements, 50 μL cell culture medium was added to the wells. This was followed by seeding the cells at a density of 6 × 10^3 cells/well to 96-well plate with gold electrodes (E-plate 96, ACEA Biosciences) coated with collagen. Cells were cultured for 5 days in a CO2 incubator at 37 °C and monitored every 10 min until the end of experiments. Cells were treated at the beginning of the plateau phase of growth. Lira, Lira-loaded PLGA NPs, blank PLGA NPs (without cargo), Lira and PN159 solution, and PN159 peptide were diluted in cell culture medium and the effects were followed for 24 h. Triton X-100 detergent (1 mg/mL) was used as a reference compound to obtain total cell toxicity. Cell index was defined as Rn-Rb at each time point of measurement, where Rn is the cell–electrode impedance of the well when it contains cells and Rb is the background impedance of the well with the medium alone.

Caco-2 epithelial cells = test: Immunostaining for junctional proteins ZO-1 and β-catenin; assay type: cell-based, human; conditions: Caco-2 on glass coverslips, 1 h treatment, Lira 100 µM, PN159 3 µM, confocal microscopy
Procedure: Aiming to investigate the morphological changes in interepithelial junctions, immunostaining for the junctional proteins, zonula occludens protein-1 (ZO-1) and β-catenin, was carried out. Cells were grown on glass coverslips (Menzel-Glaser, Braunschweig, Germany) at a density of 4 × 10^4 cells/coverslips for 4 days and treated with Lira (100 µM), Lira loaded in PLGA NPs, Lira and PN159 solution, and PN159 peptide (3 µM) solutions for 1 h. After the treatment, the coverslips were washed with phosphate buffer (PBS) and the cells were fixed with 3% paraformaldehyde solution for 15 min at room temperature and incubated in 0.2% TX-100 solution for permeabilization. The cells were blocked with 3% bovine serum albumin in PBS and incubated with the rabbit primary antibodies, anti-ZO-1 and anti-β-catenin, overnight. Incubation with secondary Cy3-labeled anti-rabbit antibody lasted for 1 h. Hoechst dye 33342 was used to stain the cell nuclei. After mounting the samples (Fluoromount-G; Southern Biotech, Birmingham, AL, USA), the staining was visualized by a Visitron spinning disk confocal system (Visitron Systems GmbH, Puchheim, Germany).

## CCCCCCCCCCCCCCCC(=O)N[C@@H](CCC(=O)NCCCC[C@H](NC(=O)[C@H](C)NC(=O)[C@H](C)NC(=O)[C@H](CCC(N)=O)NC(=O)CNC(=O)[C@H](CCC(=O)O)NC(=O)[C@H](CC(C)C)NC(=O)[C@H](Cc1ccc(O)cc1)NC(=O)[C@H](CO)NC(=O)[C@H](CO)NC(=O)[C@@H](NC(=O)[C@H](CC(=O)O)NC(=O)[C@H](CO)NC(=O)[C@@H](NC(=O)[C@H](Cc1ccccc1)NC(=O)[C@@H](NC(=O)CNC(=O)[C@H](CCC(=O)O)NC(=O)[C@H](C)NC(=O)[C@@H](N)Cc1cnc[nH]1)[C@@H](C)O)[C@@H](C)O)C(C)C)C(=O)N[C@@H](CCC(=O)O)C(=O)N[C@@H](Cc1ccccc1)C(=O)N[C@H](C(=O)N[C@@H](C)C(=O)N[C@@H](Cc1c[nH]c2ccccc12)C(=O)N[C@@H](CC(C)C)C(=O)N[C@H](C(=O)N[C@@H](CCCNC(=N)N)C(=O)NCC(=O)N[C@@H](CCCNC(=N)N)C(=O)NCC(=O)O)C(C)C)[C@@H](C)CC)C(=O)O [Liraglutide]
[1]
  Papp A→B at 1 h, 100 µM: 16 ×10⁻⁶ cm/s
[2]; after liraglutide permeability on Caco-2 cells, donor 100 µM liraglutide, Ringer-buffer pH 7.4, 1 h, HPLC, mean ± SD
  Recovery (%) Mean ± SD (mass balance): 80.9 ± 1.6%
pancreatin; 30 min incubation, mean ± SD
  Lira recovery: 9.2 ± 0.7%
pancreatin; 1 h incubation
  Lira degradation: completely degraded
[3]
  cell impedance kinetics: no decrease in cell impedance kinetics
  cell index values measured by impedance (cell viability): did not change the cell index values

## CC(C)C[C@H](NC(=O)[C@H](C)NC(=O)[C@H](CCCCN)NC(=O)[C@H](CC(C)C)NC(=O)[C@H](C)NC(=O)[C@H](CC(C)C)NC(=O)[C@H](CCCCN)NC(=O)[C@H](CC(C)C)NC(=O)[C@H](C)NC(=O)[C@H](CC(C)C)NC(=O)[C@@H](N)CCCCN)C(=O)N[C@@H](CCCCN)C(=O)N[C@@H](C)C(=O)N[C@@H](C)C(=O)N[C@@H](CC(C)C)C(=O)N[C@@H](CCCCN)C(=O)N[C@@H](CC(C)C)C(=O)N[C@@H](C)C(N)=O [PN159 peptide]
Caco-2 epithelial cells
  junctional morphology (ZO-1 and β-catenin immunostaining): visible change in the staining pattern of β-catenin
[3]
  cell impedance kinetics: no decrease in cell impedance kinetics
  cell index values measured by impedance (cell viability): did not change the cell index values

## O=C1OC2(c3ccc(O)cc3Oc3cc(O)ccc32)c2ccccc21 [fluorescein]
[2]; Caco-2 monolayers, TEER 893 ± 135 Ω × cm^2 before the experiments
  Papp of marker molecule: below 0.5 × 10^−6 cm/s

## Triton X-100
[3]
  cell index values measured by impedance (cell viability): impedance dropped to zero
